Read-outs that look alike come from different tables or passages of the source.
Legend:
Format in all cases: in vivo
[1] = test system: Beet Armyworm (BAW) (Spodoptera exigua); test: Bioassay on beet armyworm (BAW), 128-well diet tray assay; settings: Spodoptera exigua, read-out: % Mortality BAW 50 μg/cm^2
[2] = test system: Corn Earworm (CEW) (Helicoverpa zea); test: Bioassay on corn earworm (CEW), 128-well diet tray assay; settings: Helicoverpa zea, read-out: % Mortality CEW 50 μg/cm^2
In short: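 Activity was scored as percent larval mortality per well, averaged across eight wells and reported on a rating scale. Diet trays (128-well) were kept at 25° C with 14:10 light-dark for five to seven days.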

[3] = test system: Green Peach Aphid (GPA) (Myzus persicae); test: Bioassay on green peach aphid (GPA), foliar spray on cabbage seedlings; settings: read-out: % Mortality GPA 200 ppm
In short: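 Cabbage seedlings (2-3 true leaves), each infested a day earlier with 20-50 wingless adult and nymph GPA, were sprayed on both leaf sides to runoff, four pots per treatment. Corrected % control was calculated against solvent-check plants.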

Structure (SMILES) | mortality at 50 µg/cm2 ([1]; beet armyworm, 50 μg/cm^2) [%] | mortality at 50 µg/cm2 ([2]; corn earworm, 50 μg/cm^2) [%] | mortality at 200 ppm ([3]; green peach aphid, 200 ppm) [%] | mortality at 50 µg/cm2 [1] [%] | mortality at 50 µg/cm2 [2] [%] | mortality at 200 ppm [3] [%]
CCc1ccccc1N1CCCS/C1=N\N=C\c1ccc(-c2ncn(-c3ccc(OC(F)(F)F)cc3)n2)cc1 [Compound 185C] | 50 to 100 | 50 to 100 | 0 |  |  | 
COc1ccccc1N1C(=O)CS/C1=N\N=C\c1ccc(-c2ncn(-c3ccc(OC(F)(F)F)cc3)n2)cc1 [Compound 92C] | 50 to 100 | 50 to 100 | 0 to 80 |  |  | 
CCOCC(=O)OCS/C(=N\c1c(C)cccc1C)N/N=C/c1ccc(-c2ncn(-c3ccc(OC(F)(F)F)cc3)n2)cc1 [Compound 22C] | 50 to 100 | 50 to 100 | 0 to 80 |  |  | 
Cc1cccc(C)c1/N=C(/N/N=C/c1ccc(-c2ncn(-c3ccc(OC(F)(F)F)cc3)n2)cc1)SCC(=O)N1CCNCC1 [Compound 67C] | 50 to 100 | 50 to 100 | 0 |  |  | 
Cc1ccccc1N1/C(=N/N=C/c2ccc(-c3ncn(-c4ccc(OC(F)(F)F)cc4)n3)cc2)SCC1(C)O (stereo not drawn) [Compound 248C] | 50 to 100 | 50 to 100 | 0 to 80 |  |  | 
CC1CS/C(=N\N=C\c2ccc(-c3ncn(-c4ccc(OC(F)(F)F)cc4)n3)cc2)N(c2ccccc2C(C)C)C1 (racemic) [Compound 178C] | 50 to 100 | 50 to 100 | 0 |  |  | 
Cc1cccc(C)c1/N=C(/N/N=C/c1ccc(-c2ncn(-c3ccc(OC(F)(F)F)cc3)n2)cc1)SCc1c(F)cccc1F [Compound 5C] | 50 to 100 | 50 to 100 | 0 to 80 |  |  | 
Cc1cccc(C)c1/N=C(/N/N=C/c1ccc(-c2ncn(-c3ccc(OC(F)(F)F)cc3)n2)cc1)SCC(=O)NCCCNC(=O)OC(C)(C)C [Compound 58C] | 50 to 100 | 50 to 100 | 0 to 80 |  |  | 
CC(C)=Cc1ccccc1N1CCCS/C1=N\N=C\c1ccc(-c2ncn(-c3ccc(OC(F)(F)F)cc3)n2)cc1 [Compound 197C] | 50 to 100 | 50 to 100 | 0 |  |  | 
Cc1cccc(C)c1-n1c(-c2ccc(C(=O)O)cc2)cs/c1=N\N=Cc1ccc(-c2ncn(-c3ccc(OC(F)(F)F)cc3)n2)cc1 [Compound 77C] | 50 to 100 | 50 to 100 | 0 to 80 |  |  | 
Fc1cccc(Cl)c1N1CCCS/C1=N\N=C\c1ccc(-c2ncn(-c3ccc(OC(F)(F)F)cc3)n2)cc1 [Compound 188C] | 50 to 100 | 50 to 100 | 0 to 80 |  |  | 
O=C1CS/C(=N\N=C\c2ccc(-c3ncn(-c4ccc(OC(F)(F)F)cc4)n3)cc2)N1c1c(F)cccc1F [Compound 89C] | 50 to 100 | 50 to 100 | 0 |  |  | 
CC(C)c1ccccc1N1C(=O)CCS/C1=N\N=C\c1ccc(-c2ncn(-c3ccc(OC(F)(F)F)cc3)n2)cc1 [Compound 224C] | 50 to 100 | 50 to 100 | 0 to 80 |  |  | 
CCOc1ccccc1N1CCS/C1=N\N=C\c1ccc(-c2ncn(-c3ccc(OC(F)(F)F)cc3)n2)cc1 [Compound 146C] | 50 to 100 | 50 to 100 | 0 to 80 |  |  | 
COc1cc(C)c(/N=C(\N/N=C/c2ccc(-c3ncn(-c4ccc(C(F)(F)F)cc4)n3)cc2)SCOC(=O)C(C)C)c(C)c1 [Compound 46C] | 50 to 100 | 50 to 100 | 0 |  |  | 
COc1cc(C)c(/N=C(/N/N=C/c2ccc(-c3ncn(-c4ccc(OC(F)(F)F)cc4)n3)cc2)SCOC(=O)C2CCCO2)c(C)c1 (stereo not drawn) [Compound 44C] | 50 to 100 | 50 to 100 | 0 |  |  | 
Cc1ccccc1-n1c(C)cs/c1=N\N=C\c1ccc(-c2ncn(-c3ccc(OC(F)(F)F)cc3)n2)cc1 [Compound 173C] | 50 to 100 | 50 to 100 | 0 |  |  | 

Structure (SMILES) | mortality at 50 µg/cm2 ([1]; beet armyworm, 50 μg/cm^2) [%] | mortality at 50 µg/cm2 ([2]; corn earworm, 50 μg/cm^2) [%] | mortality at 200 ppm ([3]; green peach aphid, 200 ppm) [%] | mortality at 50 µg/cm2 [1] [%] | mortality at 50 µg/cm2 [2] [%] | mortality at 200 ppm [3] [%]
FC(F)(F)Oc1ccc(-n2cnc(-c3ccc(/C=N/N=C4\SCCCN4c4c(Cl)cccc4Cl)cc3)n2)cc1 [Compound 187C] | 50 to 100 | 50 to 100 | 0 |  |  | 
Cc1cccc(C)c1-n1c(-c2nccs2)cs/c1=N\N=Cc1ccc(-c2ncn(-c3ccc(OC(F)(F)F)cc3)n2)cc1 [Compound 75C] | 50 to 100 | 50 to 100 | 0 to 80 |  |  | 
Cc1cccc(C)c1/N=C(/N/N=C/c1ccc(-c2ncn(-c3ccc(OC(F)(F)F)cc3)n2)cc1)SCC(=O)NCC(NC(=O)OC(C)(C)C)C(=O)O (stereo not drawn) [Compound 59C] | 50 to 100 | 50 to 100 | 0 to 80 |  |  | 
Cc1cccc(C)c1N1C(=O)CS/C1=N\N=C\c1ccc(-c2ncn(-c3ccc(OC(F)(F)F)cc3)n2)cc1 [Compound 71C] | 50 to 100 | 50 to 100 | 0 |  |  | 
COc1cc(C)c(/N=C(/N/N=C/c2ccc(-c3ncn(-c4ccc(OC(F)(F)F)cc4)n3)cc2)SCOC(=O)C(C)(C)C)c(C)c1 [Compound 40C] | 50 to 100 | 50 to 100 | 0 to 80 |  |  | 
FC(F)(F)Oc1ccc(-n2cnc(-c3ccc(/C=N/N=C4\SCCN4c4ccccc4C4CC4)cc3)n2)cc1 [Compound 145C] | 50 to 100 | 50 to 100 | 0 to 80 |  |  | 
CCOCC(=O)OCS/C(=N\c1c(C)cc(OC)cc1C)N/N=C/c1ccc(-c2ncn(-c3ccc(OC(F)(F)F)cc3)n2)cc1 [Compound 29C] | 50 to 100 | 50 to 100 | 0 to 80 |  |  | 
CC(C)c1ccccc1N1CCCCS/C1=N\N=C\c1ccc(-c2ncn(-c3ccc(OC(F)(F)F)cc3)n2)cc1 [Compound 212C] | 50 to 100 | 50 to 100 | 0 |  |  | 
Cc1cccc(C)c1-n1c(-c2ccc(C(F)(F)F)cc2)cs/c1=N\N=Cc1ccc(-c2ncn(-c3ccc(OC(F)(F)F)cc3)n2)cc1 [Compound 79C] | 50 to 100 | 50 to 100 | 0 to 80 |  |  | 
Cc1cccc(C)c1N1CCCCS/C1=N\N=C\c1ccc(-c2ncn(-c3ccc(OC(F)(F)F)cc3)n2)cc1 [Compound 211C] | 50 to 100 | 50 to 100 | 0 |  |  | 
Cc1cccc(C)c1/N=C(/N/N=C/c1ccc(-c2ncn(-c3ccc(OC(F)(F)F)cc3)n2)cc1)SCC(=O)N1CCN(C(=O)OC(C)(C)C)CC1 [Compound 57C] | 50 to 100 | 50 to 100 | 0 to 80 |  |  | 
Cc1cccc(C)c1/N=C(/N/N=C/c1ccc(-c2ncn(-c3ccc(OC(F)(F)F)cc3)n2)cc1)SCc1ocnc1-c1ccccc1 [Compound 15C] | 50 to 100 | 50 to 100 | 80 to 100 |  |  | 
CC1CS/C(=N\N=C\c2ccc(-c3ncn(-c4ccc(OC(F)(F)F)cc4)n3)cc2)N1c1c(Cl)cccc1Cl (stereo not drawn) [Compound 157C] | 50 to 100 | 50 to 100 | 0 to 80 |  |  | 
Cc1cccc(C)c1/N=C(/N/N=C/c1ccc(-c2ncn(-c3ccc(OC(F)(F)F)cc3)n2)cc1)SCc1ccc(F)cc1F [Compound 7C] | 0 | 50 to 100 | 0 |  |  | 
Cc1cccc(C)c1/N=C(/N/N=C/c1ccc(-c2ncn(-c3ccc(OC(F)(F)F)cc3)n2)cc1)SCOC(=O)CNC(=O)OCc1ccccc1 [Compound 23C] |  |  |  | 50 to 100 | 50 to 100 | 0
COc1ccc(C(C)/N=C(/N/N=C/c2ccc(-c3ncn(-c4ccc(OC(F)(F)F)cc4)n3)cc2)SCC(=O)O)cc1 (stereo not drawn) [Compound 52C] | 0 to 50 | 0 | 0 to 80 |  |  | 
Cc1cccc(C)c1/N=C(/N/N=C/c1ccc(-c2ncn(-c3ccc(OC(F)(F)F)cc3)n2)cc1)SCOC(=O)C(C)(C)C [Compound 36C] | 50 to 100 | 50 to 100 | 0 |  |  | 

Reference: patent US8916183B2, “Pesticidal compositions and processes related thereto” (priority 2012, dated 2014)
